Laboratory results from patent US4218453A, “N-Substituted hexahydro-6-canthinones for treating cardio-circulatory, cerebrovascular, and respiratory dysfunction” (priority 1976, dated 1980).

Columns and labels:
[1] = Acute toxicity, intragastric route, mice (LD50, Lichtfield and Wilcoxon); conditions: mouse, in vivo, po
Procedure: The compounds of the invention and vincamine also were administered by intragastric route to Charles River stock mice. The lethal doses for 50% (LD50) were determined graphically according to the method of Lichtfield and Wilcoxon (J. Pharmacol. Exp. Therap. […], 96, 99).

Charles River stock mice = assay: Hypobaric anoxia test on mice (survival time); type: in vivo; conditions: for activity relative to vincamine: comparison on the basis of fractions of LD50
Procedure: Charles River stock mice of the same sex, weighting about 20±2 g are shared into three lots of 10 animals each. The lots 1 and 2 comprise treated animals, i.e. those having received either a substance to be tested or vincamine, together with solvent, at 1 ml/100 g of body weight. The third lot comprises control animals i.e. those having only received solvent at 1 ml/100 g of body weight.
The compounds examined were administered by intragastric route 15 minutes before the experiment. The doses as applied correspond to 1/5, 1/10, 1/20 of the LD50 for the compounds of the invention and 1/5 of LD50 for vincamine.
The animals were placed in an atmosphere impoverished in oxygen by creating a partial vacuum (190 mm Hg, corresponding to 5.25% oxygen), in about 30 seconds.
The survival time of the mice was measured with a chronometer. Said time is increased by the agents capable of enhancing oxygenation of tissues and more particularly brain oxygenation.
The percentages of survival time increase with respect to the values obtained for the control animals are calculated.

For CN1CCc2c3n(c4ccccc24)C(=O)CCC31 (stereo not drawn) [OC-330], the LD50 ([1]; mice) was 310 mg/kg, the “Variation % (survival time increase vs control)” value (Charles River stock mice; Table II, 1st experiment, 60 mg/kg or LD50/5, intragastric 15 min before) was 212% and the Survival time (Charles River stock mice; Table II, 1st experiment, 60 mg/kg or LD50/5, intragastric 15 min before, control 39 (± 2)) was 122 (± 4) sec. The “Variation % (survival time increase vs control)” value (Charles River stock mice; Table II, 2nd experiment, 30 mg/kg or LD50/5 (so in the source)) was 71%, the Survival time (Charles River stock mice; Table II, 2nd experiment, 30 mg/kg or LD50/5 (so in the source), control 39 (± 3)) was 67 (± 3) sec and the “effect compared with vincamine at 1/5 LD50” value (Charles River stock mice; at doses corresponding to 1/10 LD50 for mice (p.o.)) was “exerts an effect whose intensity is comparable to vincamine at 1/5 LD50”. The “activity relative to vincamine” value (Charles River stock mice) was “about two times more active than vincamine”.

With CCN1CCc2c3n(c4ccccc24)C(=O)CCC31 (stereo not drawn) [OC-331, 3-ethyl-1,2,3,3a,4,5-hexahydro-6-canthinone] the LD50 ([1]; mice) was 411 mg/kg, the “Variation % (survival time increase vs control)” value (Charles River stock mice; Table III, 1st experiment, 80 mg/kg or LD50/5) was 214% and the Survival time (Charles River stock mice; Table III, 1st experiment, 80 mg/kg or LD50/5, control 39 (± 2)) was 122 (± 1) sec. For the same compound, the “Variation % (survival time increase vs control)” value (Charles River stock mice; Table III, 2nd experiment, 40 mg/kg or LD50/10) was 105%, the Survival time (Charles River stock mice; Table III, 2nd experiment, 40 mg/kg or LD50/10, control 39 (± 1)) was 80 (± 3) sec and the “Variation % (survival time increase vs control)” value (Charles River stock mice; Table III, 3rd experiment, 20 mg/kg or LD50/20) was 75%. For the same compound, the Survival time (Charles River stock mice; Table III, 3rd experiment, 20 mg/kg or LD50/20, control 39 (± 1)) was 57 (± 4) sec, the “effect compared with vincamine at 1/5 LD50” value (Charles River stock mice; at doses corresponding to 1/20 LD50 for mice (p.o.)) was “exerts an effect comparable to vincamine at 1/5 LD50” and the “activity relative to vincamine” value (Charles River stock mice) was “about four times more active than vincamine”.

With CN1CCc2c3n(c4c(O)cccc24)C(=O)CCC31 (stereo not drawn) [OC-332] the LD50 [1] was 527 mg/kg, the “Variation % (survival time increase vs control)” value (Charles River stock mice; Table IV, 100 mg/kg or LD50/5) was 117% and the Survival time (Charles River stock mice; Table IV, 100 mg/kg or LD50/5, control 35 (± 3)) was 76 (± 1) sec. For the same compound, the “effect relative to vincamine” value (Charles River stock mice; at equally toxic dose) was “about 1.5 times higher”.

For CC[C@]12CCCN3CCc4c(n(c5ccccc45)[C@@](O)(C(=O)OC)C1)[C@@H]32 [Vincamine, vincamine, reference compound], the LD50 ([1]; mice) was 970 mg/kg, the “Variation % (survival time increase vs control)” value (Charles River stock mice; Table II, 1st experiment, vincamine 200 mg/kg, LD50/5) was 67% and the Survival time (Charles River stock mice; Table II, 1st experiment, vincamine 200 mg/kg, LD50/5, control 39 (± 2)) was 65 (± 1) sec. The “Variation % (survival time increase vs control)” value (Charles River stock mice; Table II, 2nd experiment, vincamine 200 mg/kg or LD50/5) was 67%, the Survival time (Charles River stock mice; Table II, 2nd experiment, vincamine 200 mg/kg or LD50/5, control 39 (± 3)) was 65 (± 2) sec and the “Variation % (survival time increase vs control)” value (Charles River stock mice; Table III, 1st experiment, vincamine 200 mg/kg or LD50/5) was 67%. The Survival time (Charles River stock mice; Table III, 1st experiment, vincamine 200 mg/kg or LD50/5, control 39 (± 2)) was 65 (± 3) sec, the “Variation % (survival time increase vs control)” value (Charles River stock mice; Table III, 2nd experiment, vincamine 200 mg/kg or LD50/5) was 67% and the Survival time (Charles River stock mice; Table III, 2nd experiment, vincamine 200 mg/kg or LD50/5, control 39 (± 1)) was 65 (+ 1) sec. The “Variation % (survival time increase vs control)” value (Charles River stock mice; Table III, 3rd experiment, vincamine 200 mg/kg or LD50/5) was 59%, the Survival time (Charles River stock mice; Table III, 3rd experiment, vincamine 200 mg/kg or LD50/5, control 39 (± 1)) was 52 (± 1) sec and the “Variation % (survival time increase vs control)” value (Charles River stock mice; Table IV, vincamine 200 mg/kg or LD50/5) was 77%. For the same compound, the Survival time (Charles River stock mice; Table IV, vincamine 200 mg/kg or LD50/5, control 35 (± 3)) was 62 (± 4) sec.
